Columns and labels:
Xanthin Oxidase [1] = assay: NBT test (xanthine oxidase system, optical density at 540 nm); format: biochemical
Excerpt: (§1) Die optische Dichte des Extraktes lag bei 513 nm. Als erstes Testsubstrat wurde Diphenylpicrylhydrazyl (DPPH) gewählt, ein purpurrot gefärbtes stabiles Radikal, welches durch Inkontaktbringen mit Radikalfängern in sein ungefärbtes Leucoderivat übergeht. Der Farbwechsel kann photometrisch verfolgt werden. Die Meßergebnisse sind in Tabelle 2 zusammengefaßt ("DPPH-Test").. In einem weiteren Test wurde Xanthin Oxidase als Testsystem gewählt. Das Enzym bewirkt bei oxidativem Stress die Umwandlung von Purinbasen, wie z.B. Adenin oder Guanin in […], wobei die intermediär gebildeten Sauerstoffradikale durch Reaktion mit Luminol über die Lumineszenz nachgewiesen und quantitativ bestimmt werden können. In Gegenwart von Substanzen mit radikalfangenden Eigenschaften vermindert sich die Lumineszenzausbeute. Der NBT-Wert bestimmt den Gehalt von […], welches aus NBT durch das Sauerstoffradikal gebildet wird. Die optische Dichte wurde bei 540 nm bestimmt.
(§2) Diese Ergebnisse sind in Tabelle 3 zusammengefaßt; wieder ist die Inhibierung in %-absolut angegeben ("Luminol-Test"). Tab.

Xanthin Oxidase [2] = assay: Luminol-Test (xanthine oxidase system, luminescence); format: biochemical
Excerpt: as §1, §2

Xanthin Oxidase [3] = assay: Luminol + Microperoxydase test (xanthine oxidase system); format: biochemical
Excerpt: as §1, §2

[4] = DPPH-Test (chemical test, activity against free radicals)
Excerpt: as §1

[5] = test system: menschlichen Keratinozyten; assay: Cell protection against UVB on human keratinocytes cultured in vitro; format: cell-based; conditions: UVB 50 mJ/cm^2; 0,03 % test substance
Description: Methode: Der Effekt von UVB-Strahlung wurde an Keratinocyten in vitro untersucht indem die Freisetzung des Cytoplasaenzyms LDH (Lactat Dehydrogenase) bestimmt wurde. Dieses Enzym dient als Marker für eine Zellschädigung.
Zur Durchführung der Tests wurde ein definiertes Medium, das fötales Kälberserum enthält, mit den Keratinozyten beimpft und der Pflanzenextrakt (mit Saline-Lösung verdünnt) 72 Stunden nach dem Beimpfen zugegeben. […]
Nach weiterer 1 tägiger Inkubation bei 37 °C und bei 5 % CO2 wurde der LDH-Gehalt im Überstand bestimmt. Der Gehalt von LDH- (Lactatdehydrogenase) wurde mittels einer Enzymreaktion bestimmt (verwendetes Kit zur Untersuchung des LDH Gehaltes von der Firma Roche). Die Anzahl adhärenter Keratinozyten wird (nach Trypsinbehandlung) mit einem Partikelzählgerät bestimmt. Tab.

[6] = Antioxidative capacity: inhibition of lipid peroxidation in liposomes (AOP50); format: biochemical; conditions: concentration at which lipid peroxidation is reduced by 50 %; Fe(II) ascorbate, 37 °C, 45 min, MDA-thiobarbituric acid at 532 nm
Description: Als Maß für die antioxidative Kapazität der Erdnusshäutchen Extrakte wurde ihre Fähigkeit bestimmt, die Lipidperoxidation in Liposomen zu verhindern. Dazu wurde eine 0,2 Gew.-%ige Liposomen Suspension aus Sojalecithin in Phosphatpuffer hergestellt. Die Lipidperoxidation wurde durch Zugabe eines Eisen(II)ascorbat Komplexes (10mM Fe(II)SO4, 50 mM Ascorbat) initiiert. Die Inkubation wurde bei 37 °C für 45 min. durchgeführt. Als Endprodukt der Lipidperoxidation entsteht Malondialdeyd, welches über eine Farbreaktion mit Thiobarbitursäure quantifiziert wird (photometrische Bestimming des Malondialdehyd-Thiobarbitursäure Komplexes bei 532 nm). Zur Bestimmung der antioxidativen Kapazität der Erdnusshäutchen Extrakte wurden diese in unterschiedlichen Konzentration vor der Zugabe des Eisen(II)ascorbat Komplexes zum Inkubationsansatz gegeben. Ermittelt wurde die Konzentration an Pflanzenextrakt (in µg/ml), bei der die Lipidperoxidation um 50 % verringert ist (= AOP50) im Vergleich zur Bestimmung ohne Zusatz an Pflanzenextrakt. D.h. je geringer die angegebene Konzentration AOP50, desto höher ist die antioxidative Kapazität des untersuchten Erdnussextraktes. Als Referenzsubstanz diente das Antioxidans n-Propylgallat. Tab.

[7] = Electron spin resonance spectroscopy (ESR), radical scavenging with spin trap DMPO; conditions: 5 mM solution (comparison)
Excerpt: Die Methode der Elektronenspinresonanz Spektroskopie beruht auf dem Prinzip der Generierung kurzlebiger Radikale über chemische Radikalgeneratoren, der Stabilisierung und Akkumulierung der Radikale mittels Radikalfänger (Spin-Trapper-Substanzen) und der Detektion der für die einzelnen Radikale typischen ESR-Spektren. Die radikalfangenden Eigenschaften der zu untersuchenden Substanzen werden durch die Abnahme der Signalintensitäten der getrappten Radikale charakterisiert. Im vorliegenden Fall wurde als Radikal Fänger (Spin Trapper) DMPO (5,5-Dimethyl-1-pyrrolin-N-oxid) verwendet. Die Signalintensität des mit Hilfe des DMPO gebildeten stabilen DMPO-Hydroxyadduktes wurde 100 % gesetzt. Die Abnahme dieses Signals in Abhängigkeit von der Konzentration des eingesetzten Pflanzenextraktes, ist ein Nachweis für die Radikal fangenden Eigenschaften der Extrakte.
Der Extrakt aus Beispiel 1 wurde mittels der ESR Spektroskopie untersucht. Bereits in einer Konzentration von 0,01 Gew.-% führte dieser Extrakt zu einer Abnahme des DMPO-Hydroxyaddukt Signals um 79 % auf ein Restsignal von 21 %. Bei einer Konzentration von 0,05 % zeigte sich eine Abnahme des Signals um 89 % und bei einer Konzentration von 0,5 % fand eine völlige Löschung des Signals statt. Als Vergleich diente eine 5 mM α-Tocopherol Lösung, die eine Abnahme des Signals um 65 % bewirkte.

humanen Fibroblasten = assay: Cell protection against UVA on human fibroblasts cultured in vitro; format: cell-based; conditions: UVA 20 J/cm^2; 0,0003 % test substance
Description: Methode: Zur Durchführung dieser Tests wurde ein definiertes Kulturmedium mit den Fibroblasten mit fötalem Kälberserum beimpft und der Pflanzenextrakt (in dem definierten Medium mit 10 % Fötalem Kälberserum) 72 Stunden nach dem Beimpfen zugegeben.
Nach 48 stündiger Inkubation bei 37 °C und einem CO2-Gehalt von 5 % wurde das Kulturmedium durch Saline-Lösung (physiologische NaCI-Lösung) ersetzt und die Fibroblasten wurden mit einer UVA-Dosis bestrahlt (365 nm, 20 J/cm^2; Röhren: MAZDA FLUOR TFWN40).
Nach der Beendigung der Bestrahlung wurde der MDA-Spiegel (Malonaldialdehyd-Spiegel) in der überstehenden Natriumchlorid-Lösung quantitativ durch Reaktion mit Thiobarbitursäure bestimmt.
Außerdem wurde der Gehalt an Proteinen nach der Methode von Bradford bestimmt und der Gehalt an GSH untersucht wobei es sich um reduziertes Glutathion handelt. Der Gehalt an GSH wurde bstimmt nach der Methode von Hissin (Hissin PJ, Hilf R., A fluorometric method for determination of oxydised and reduced glutathione tissues, Anal. Biochem. 74, 214-226, 1976). Tab.

Compound | EC50 in % NBT (Xanthin Oxidase [1]) | EC50 in % Luminol (Xanthin Oxidase [2]) | EC50 in % Luminol + Microperoxydase (Xanthin Oxidase [3]) | EC50 in % DPPH-Test [4] | also measured
O=C1O[C@H]([C@@H](O)CO)C(O)=C1O [Ascorbinsäure] | 0,5909% | 0,0006% | 0,0058% | 0,0013% | –
CC(=O)Oc1ccccc1C(=O)O [Aspirin] | – | – | – | – | Anzahl Keratinocyten [5]: 52 % im Vergleich zur Kontrolle; Gehalt an LDH [5]: 46 % im Vergleich zur Kontrolle; Gehalt an PGE2 [5]: 4 % im Vergleich zur Kontrolle
CCCOC(=O)c1cc(O)c(O)c(O)c1 [n-Propylgallat] | – | – | – | – | AOP50 [6]: 2,9 µg/ml
Cc1c(C)c2c(c(C)c1O)CC[C@@](C)(CCC[C@H](C)CCC[C@H](C)CCCC(C)C)O2 [α-Tocopherol] | – | – | – | – | Abnahme des Signals [7]: 65%
Tocopherol | Kein Effekt bis zu 1% | Kein Effekt bis zu 1% | Kein Effekt bis zu 1% | 0,0067% | Freigesetzter MDA (humanen Fibroblasten): 19 % im Vergleich zur Kontrolle; GSH/Protein (humanen Fibroblasten): 77 % im Vergleich zur Kontrolle; Zellproteine (humanen Fibroblasten): 95 % im Vergleich zur Kontrolle
